Drawing on ChEMBL document CHEMBL4052669, “Synthesis, molecular modelling and CYP24A1 inhibitory activity of novel of (E)-N-(2-(1H-imidazol-1-yl)-2-(phenylethyl)-3/4-styrylbenzamides” (Bioorg Med Chem, 2017), this text covers IC50 for ten compounds.

This test deals with T1, 1,25-dihydroxyvitamin D(3) 24-hydroxylase, mitochondrial (Homo sapiens, UniProt Q07973).
T1 sequence (Q07973 whole entry): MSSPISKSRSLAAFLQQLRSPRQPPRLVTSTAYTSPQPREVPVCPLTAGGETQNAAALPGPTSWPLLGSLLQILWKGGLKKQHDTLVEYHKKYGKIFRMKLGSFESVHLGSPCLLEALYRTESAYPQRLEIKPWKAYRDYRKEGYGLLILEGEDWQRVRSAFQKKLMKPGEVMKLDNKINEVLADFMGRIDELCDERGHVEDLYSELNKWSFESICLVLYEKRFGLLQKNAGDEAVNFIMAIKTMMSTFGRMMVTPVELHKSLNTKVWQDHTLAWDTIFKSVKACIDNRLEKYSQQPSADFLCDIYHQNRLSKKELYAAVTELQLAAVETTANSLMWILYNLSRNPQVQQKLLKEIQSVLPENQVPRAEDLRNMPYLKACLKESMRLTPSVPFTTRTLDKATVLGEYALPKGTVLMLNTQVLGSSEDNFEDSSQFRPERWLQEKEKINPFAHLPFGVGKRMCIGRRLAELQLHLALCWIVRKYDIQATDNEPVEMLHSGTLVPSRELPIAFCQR
The test is described as follows: Inhibition of MBP-tagged human CYP24A1 expressed Escherichia coli BL21-Gold(DE3) incubated for 25 mins in presence of Adx, AdR 1,25(OH)2D3 and NADPH by HPLC method.

Molecules are shown by their SMILES.

Broadly, the IC50 is the point on the concentration scale where inhibition reaches its midpoint. Consider `O=C(NCC(c1ccc(C(F)(F)F)cc1)n1ccnc1)c1ccc(/C=C/c2ccccc2)cc1` (stereo not given), for which the IC50 was found to be 0.18 µM.

In the case of `Cc1ccc(C(CNC(=O)c2ccc(/C=C/c3ccccc3)cc2)n2ccnc2)cc1C` (stereo not given), the IC50 stood at 0.31 µM.

`O=C(NCC(c1ccc(C(F)(F)F)cc1)n1ccnc1)c1cccc(/C=C/c2ccccc2)c1` (stereo not given): the IC50 worked out at 0.15 µM.

On to `O=C(NCC(c1ccc(Cl)cc1)n1ccnc1)c1cccc(/C=C/c2ccccc2)c1` (stereo not given), for which the IC50 worked out at 0.16 µM.

Take `COc1ccc(C(CNC(=O)c2ccc(/C=C/c3ccccc3)cc2)n2ccnc2)cc1` (stereo not given): the IC50 is 0.11 µM.

For the compound `O=C(NCC(c1ccccc1)n1ccnc1)c1cccc(/C=C/c2ccccc2C(F)(F)F)c1` (stereo not given), the IC50 turned out to be 0.34 µM.

As to `O=C(NCC(c1ccccc1)n1ccnc1)c1cccc(/C=C/c2ccccc2)c1` (stereo not given), the IC50 was determined as 0.19 µM.

Take `O=C(NCC(c1ccc(Cl)cc1)n1ccnc1)c1ccc(/C=C/c2ccccc2)cc1` (stereo not given): the half-maximal inhibitory concentration (IC50) turned out to be 0.21 µM.

In the case of `COc1ccc(/C=C/c2ccc(C(=O)NCC(c3ccc(Cl)cc3)n3ccnc3)cc2)cc1OC` (stereo not given), the IC50 was determined as 0.12 µM.

On to `O=C(NCC(c1ccccc1C(F)(F)F)n1ccnc1)c1ccc(/C=C/c2ccccc2)cc1` (stereo not given), for which the IC50 came out at 0.35 µM.
